By CC50 is commonly meant the concentration giving 50% cytotoxicity. What is called IC50 is the concentration that gives 50% inhibition.

The results in this text go back to ChEMBL document CHEMBL1129925, “Synthesis and antiviral evaluation of 4-hydroxymethyl-2, 3-dideoxy-3-thianucleosides and their cyclic monophosphates” (Bioorg Med Chem Lett, 1997).

Molecules are shown by their SMILES. Calls of active or inactive are those of the source. The calls are words filed in the database; no cut-off is given here.

In test [1] the test system is CD-4+ (A 3.01). In words: Antiviral activity in CD-4+ (A 3.01) cell line expressed as CC50. The format is functional.
Test [2] relates to CD-4+ (A 3.01). The test can be described thus: Antiviral activity in CD-4+ (A 3.01) cell line expressed as IC50. The format is functional, cell-based.
In a further test the test system is H9. The test can be described thus: Antiviral activity in H9 cells expressed as IC50. The note with it: Homo sapiens. It counts as functional, cell-based.
For another test, the system named is CEM-SS. In words: Tested for anti-HIV activity in CEM-SS cell line; Inactive. It counts as functional, cell-based. As to conditions: Homo sapiens.
Test [3] deals with MT4. The test can be described thus: Antiviral activity in MT-4 cells expressed as IC50. It counts as functional, cell-based, Homo sapiens.
Test [4] deals with MT4. The test can be described thus: Antiviral activity in MT-4 cells expressed as CC50. As to conditions: Homo sapiens. It counts as functional.
Test [5] has as its system CCRF-CEM. The test can be described thus: Cytotoxicity against CEM cells. It counts as functional. The note with it: Homo sapiens.
The test system of test [6] is MT4. The test can be described thus: Cytotoxicity against MT-4 cells. The format is functional. The note with it: Homo sapiens.
Test [7] is described as follows: Antiviral activity in PBM cells. It counts as functional, cell-based. The note with it: Homo sapiens, PBMC.
Test [8] can be described thus: Cytotoxicity against PBM cells. It counts as functional. As to conditions: Homo sapiens, PBMC.
The test system of test [9] is MT4. In words: Antiviral activity in MT-4 cells. It counts as functional, cell-based. The note with it: Homo sapiens.
A short description of test [10]: Antiviral activity in PBM cells expressed as IC50. It counts as functional, cell-based, Homo sapiens.
Test [11] can be described thus: Antiviral activity in PBM cells expressed as CC50. The format is functional. As to conditions: Homo sapiens, PBMC.
Test [12] relates to CCRF-CEM. In words: Antiviral activity in CEM cells expressed as CC50. The format is functional. As to conditions: Homo sapiens.

Consider `Cc1cn([C@H]2C[C@H](O)[C@](CO)(N=[N+]=[N-])O2)c(=O)[nH]c1=O`, for which it took 8000 nM to reach half-maximal cytotoxicity with CD-4+ (A 3.01) [1] (CC50). The half-inhibitory concentration (IC50) in the test with CD-4+ (A 3.01) [2] was 10 nM.

For `Nc1ccn(C2CC(CO)C(CO)O2)c(=O)n1` (centres undefined), inhibition with H9 was half-maximal at 10 nM (IC50). As for `Cc1cn(C2CSC(CO)(CO)O2)c(=O)[nH]c1=O` (centres undefined), the Anti-HIV activity result with CEM-SS was “inactive”. The same measure, in the same setting: in the case of `Cc1cn(C2CSC3(COP(=O)(O)OC3)O2)c(=O)[nH]c1=O` (centres undefined) it was “inactive”.

`Nc1ccn(C2CSC(CO)(CO)O2)c(=O)n1` (centres undefined): the Anti-HIV activity result in the test on CEM-SS was “inactive”. On the same count and under the same terms, for `Nc1ccn(C2CSC3(COP(=O)(O)OC3)O2)c(=O)n1` (centres undefined) the value was “inactive”. On to `Nc1ccn([C@@H]2CS[C@H](CO)O2)c(=O)n1` (racemic) [LAMIVUDINE], for which the IC50 in the test with MT4 [3] (Homo sapiens, MT4) is 370 nM. Besides, the midpoint of cytotoxicity with MT4 [4], the CC50, lay at 405000 nM.

As for `Nc1ccn([C@@H]2CS[C@H](CO)O2)c(=O)n1` (single isomer, unassigned) [LAMIVUDINE], the values for the CC50 (with CCRF-CEM [5]; with MT4 [6]; in [8]) were 363000 nM, 407000 nM and above 100000 nM, respectively. The IC50 in [7] is 210 nM; in the test on MT4 [9], 370 nM. In test [10], `Nc1ccn([C@@H]2CS[C@H](CO)O2)c(=O)n1` (stereo in doubt; (+)) [LAMIVUDINE] had an IC50 of 210 nM. Moreover, in [11], the CC50 is above 100000 nM. With `Nc1ccn([C@@H]2CS[C@H](CO)O2)c(=O)n1` (stereo in doubt; (-)) [LAMIVUDINE], in the test with CCRF-CEM [12], half-maximal cytotoxicity (CC50) was put at 363000 nM. For the same compound, the results for the IC50 (in the test with MT4 [3] (mt4); in test [10]) were 610 nM and 2 nM, respectively.
